Data taken from paper PMC7725843, “Structural and biochemical analyses of an aminoglycoside 2′-N-acetyltransferase from Mycolicibacterium smegmatis” (Scientific Reports, 2020).

How the values were obtained:
AAC(2′)-Id [1] = biological target: T1, AAC(2′)-Id (Mycolicibacterium smegmatis, UniProt P94968); experiment: DTNB assay of CoA release at […] nm, Michaelis-Menten fit; type: biochemical; settings: 300 μM acetyl-CoA, 50 mM MES pH 6.5, 200 μM DTNB, 25 °C
T1 construct: full-length ORF (630 bp), codon-optimised synthetic gene in pET-28a(+), E. coli BL21(DE3); N-terminal His-tag cut with thrombin; homodimer

AAC(2′)-Id [2] = biological target: T1, AAC(2′)-Id; experiment: X-ray crystal structure; type: binding; settings: ternary complexes with gentamicin, sisomicin, neomycin or paromomycin; 5 mM CoA

T1 sequence (P94968 whole entry): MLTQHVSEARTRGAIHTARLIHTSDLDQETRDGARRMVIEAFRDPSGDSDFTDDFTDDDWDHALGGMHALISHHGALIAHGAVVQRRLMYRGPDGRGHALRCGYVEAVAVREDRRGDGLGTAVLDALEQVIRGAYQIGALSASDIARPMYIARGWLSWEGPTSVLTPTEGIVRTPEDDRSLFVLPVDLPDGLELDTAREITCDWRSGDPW

Structure (SMILES) | Km (μM) (AAC(2′)-Id [1]) | X-ray crystal structure (AAC(2′)-Id [2])
CN[C@@H]1[C@@H](O)[C@@H](O[C@@H]2[C@@H](O)[C@H](O[C@H]3OC(CN)=CC[C@H]3N)[C@@H](N)C[C@H]2N)OC[C@]1(C)O [Sisomicin] | (7.30 ± 0.58) × 10 μM | 
CC(C)(COP(=O)(O)OP(=O)(O)OC[C@H]1O[C@@H](n2cnc3c(N)ncnc32)[C@H](O)[C@@H]1OP(=O)(O)O)[C@@H](O)C(=O)NCCC(=O)NCCS [CoA] |  | chain B contains only a CoA molecule
